One may read the MIC as the least concentration at which growth counts as inhibited. The MBC is the lowest tested concentration that kills the bacteria rather than only halting them. Lower therefore signals greater bactericidal potency.

Assay in all cases: Bactericidal effect on N. gonorrhoeae strains
Type in all cases: cell-based

In assay [1] the test system is N. gonorrhoeae L 1007 (CTC 6820). The settings on record: Neisseria gonorrhoeae.
Assay [2] concerns N. gonorrhoeae L 1001. Particulars: Neisseria gonorrhoeae, L1001, clinical isolate.
In assay [3] the test system is N. gonorrhoeae L 1601. The settings on record: Neisseria gonorrhoeae, L1601, clinical isolate, penicillin-resistant.
Assay [4] relates to N. gonorrhoeae L 1004. Particulars: Neisseria gonorrhoeae, L1004, clinical isolate.
The subject of assay [5] is N. gonorrhoeae L 1605. Particulars: Neisseria gonorrhoeae, L1605, clinical isolate, penicillin-resistant.
For assay [6], the system named is N. gonorrhoeae L 1596. The settings on record: Neisseria gonorrhoeae, L1596, clinical isolate, spectinomycin-resistant.
Setting [7] is: 24 h, 99.9% of initial inoculum killed.

Converted amounts (≈) assume the structure as drawn.

As to `CN[C@@H]1[C@H](O)[C@H](NC)[C@H]2O[C@@]3(O)C(=O)C[C@@H](C)O[C@H]3O[C@@H]2[C@H]1O` [Spectinomycin], the minimum inhibitory concentration (MIC) in assay [1] (48 h) was 16 µg/mL (≈ 48.1 µM); in assay [2] (48 h) it was 16 µg/mL (≈ 48.1 µM); in assay [3] (48 h), 16 µg/mL (≈ 48.1 µM); in assay [4] (48 h) it was 16 µg/mL (≈ 48.1 µM); in assay [5] (48 h), 32 µg/mL (≈ 96.3 µM); in assay [6] (48 h) it was over 128 µg/mL. Also, the minimal bactericidal concentration (MBC) in assay [1] (setting [7]) was 16 µg/mL (≈ 48.1 µM); in assay [2] (setting [7]), 32 µg/mL (≈ 96.3 µM); in assay [3] (setting [7]), 16 µg/mL (≈ 48.1 µM); in assay [4] (setting [7]), 32 µg/mL (≈ 96.3 µM); in assay [5] (setting [7]), 32 µg/mL (≈ 96.3 µM); in assay [6] (setting [7]) it was over 128 µg/mL.

Source of the values: patent publication US4935238A, “Antibiotic A 40926 complex and its pure factors PA, PB, A, B and B0” (Gruppo Lepetit, S.p.A., priority 1984, dated 1990).
